Measured values as given in patent publication US8003621B2, “Drug carriers” (Nitto Denko Corporation, priority 2007, dated 2011).

System: red blood cell
Assay: Hemolytic assay
Set-up: species or system nude mice
Details: 0.2% TritonX-100, 100 μL/well with 10 μL of blood sample; 60 minutes at 37° C.
Procedure: Blood samples of nude mice were collected in heparinize-tubes and were centrifuged at 700×g for 10 minutes. The supernatant was discarded, and the red blood cell pellet was washed three times with cold PBS (pH 7.4) and was re-suspended in the same buffer. Solutions of the polymers and the siEGFP of different concentrations were prepared in PBS buffers and were added to the round-bottom plate at 100 μL/well. Blood sample (10 μL) was added to each well, and the plate was incubated for 60 minutes at 37° C. The release of hemoglobin was determined by photospectrometric analysis after centrifugation (700 g for 10 min). The supernatant (100 μL) from each well was transferred into flat-bottom plate. Intensity of […] at 540 nm was measured by a plate reader.

In the case of TritonX-100, the “hemolysis (control value)” value is reported as 100%.
